Some test systems named below: CCRF-CEM leukemia; EKVX NSCLC; HCC-2998 colon; HL-60(TB) leukemia; HOP-62 NSCLC; MCF7 breast; OVCAR-4 ovarian; SF-539 CNS; TK-10 renal; UACC-257 melanoma.
Holding throughout (test): NCI anticancer screen, dose series, 48 h

“And” between values parts separate entries of the source, which are not always exact repeats. Equal values may be shown once.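 Exposure lasted 48 hours, with cells grown in 96-well plates and compounds tested at five concentrations. GI50 = concentration required for 50% inhibition of growth. At the TGI there is no net growth.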

As to `CCCCCCCCCCCCOC1C(C(COC2OC(C3COC(C)(C)O3)C3OC(C)(C)OC23)NC(=O)NS(=O)(=O)c2ccccc2)OC2OC(C)(C)OC21` (configuration not stated), the GI50 in the assay with CCRF-CEM leukemia is 2.34 µM; in the assay on EKVX NSCLC it was 3.89 µM; with HCC-2998 colon, 3.24 µM; in the assay with HL-60(TB) leukemia, 0.406 µM; in the assay with HOP-62 NSCLC it was 4.34 µM; in the assay with MCF7 breast it was 2.98 µM. For the same molecule, the GI50 in the assay with OVCAR-4 ovarian was 8.23 µM; in the assay on SF-539 CNS it was 2.53 µM; in the assay on TK-10 renal, 5.96 µM; in the assay with UACC-257 melanoma, 4 µM. Further, the TGI in the assay with CCRF-CEM leukemia is 7.49 µM; in the assay with EKVX NSCLC, 16.8 µM; in the assay with HCC-2998 colon it was 12.8 µM; in the assay with HL-60(TB) leukemia it was 2.69 µM; in the assay on HOP-62 NSCLC, 14.5 µM; with MCF7 breast, 12.9 µM. In addition, the TGI in the assay on OVCAR-4 ovarian was determined as 66.5 µM; with SF-539 CNS, 6.54 µM; in the assay with TK-10 renal, 19.6 µM; in the assay on UACC-257 melanoma, 16.5 µM.
Take `COc1ccc(NC(=O)COCCOCCNC[C@@H]2C(=O)O[C@H]3[C@H]2CC/C(COC(=O)OC/C2=C/CC[C@@]4(C)O[C@H]4[C@H]4OC(=O)[C@@H](CN(C)C)[C@@H]4CC2)=C\CC[C@@]2(C)O[C@@H]32)c(O)c1C(N)=O`: the GI50 was 1.21 µM in the assay with CCRF-CEM leukemia; 5.76 µM in the assay on EKVX NSCLC; 10.2 µM with HCC-2998 colon; 0.77 µM with HL-60(TB) leukemia; 39.9 µM in the assay on HOP-62 NSCLC; 1.63 µM in the assay with MCF7 breast. The GI50 in the assay with OVCAR-4 ovarian was 3.19 µM; with SF-539 CNS it was 3.42 µM; in the assay with TK-10 renal, 2.72 µM; with UACC-257 melanoma it was 6.1 µM. The TGI in the assay on CCRF-CEM leukemia is 3.27 µM; in the assay on EKVX NSCLC it was 14.7 µM; in the assay on HCC-2998 colon it was 19.1 µM; in the assay on HL-60(TB) leukemia, 1.91 µM; in the assay with HOP-62 NSCLC, over 50 µM; in the assay on MCF7 breast it was 9.01 µM. In addition, the TGI was 10.2 µM in the assay with OVCAR-4 ovarian, 9.92 µM with SF-539 CNS, 9.12 µM in the assay on TK-10 renal and 13.2 µM with UACC-257 melanoma.
As to `CC[C@@]1(OC(=O)CN)C(=O)OCc2c1cc1n(c2=O)Cc2cc3c(N)cccc3nc2-1`, the GI50 in the assay with CCRF-CEM leukemia is under 0.01 µM; in the assay on EKVX NSCLC it was 0.265 µM; with HCC-2998 colon, 0.084 µM; in the assay on HL-60(TB) leukemia, under 0.01 µM; in the assay on HOP-62 NSCLC, under 0.01 µM; with MCF7 breast, under 0.01 µM. Also, the GI50 with OVCAR-4 ovarian is 0.211 µM; in the assay on SF-539 CNS, under 0.01 µM; with TK-10 renal, 1.31 µM; in the assay with UACC-257 melanoma, 0.0774 µM. Besides, the TGI in the assay with CCRF-CEM leukemia was over 100 µM; in the assay with EKVX NSCLC, over 100 µM; with HCC-2998 colon, 0.782 µM; in the assay with MCF7 breast, over 100 µM; in the assay on OVCAR-4 ovarian it was 3.32 µM; in the assay with SF-539 CNS, under 0.0153 µM. Moreover, the TGI with TK-10 renal was over 21.6 µM; with UACC-257 melanoma, 1.5 µM.
For the molecule `CCOC(=O)/C(=C\c1ccc(C#N)cc1)C(C)=O`, the TGI with CCRF-CEM leukemia is over 100 µM; in the assay on EKVX NSCLC, over 100 µM; in the assay on HCC-2998 colon, 19.6 µM; in the assay on HL-60(TB) leukemia, over 100 µM; in the assay with HOP-62 NSCLC, over 100 µM; with MCF7 breast it was 61.9 µM. Besides, the TGI in the assay with OVCAR-4 ovarian was 97.9 µM; in the assay with SF-539 CNS, over 100 µM; with TK-10 renal, 57.1 µM; with UACC-257 melanoma, 43.2 µM.
Regarding `CC1(O)CC(c2nc(-c3ccc4ccc(-c5ccccc5)nc4c3)c3c(N)nccn23)C1` (configuration not stated), the GI50 is 9.89 µM and > 10 µM in the assay with CCRF-CEM leukemia; 11.7 µM and > 10 µM in the assay with EKVX NSCLC; 6.71 µM and > 10 µM in the assay on HCC-2998 colon; 5.75 µM and 7.35 µM in the assay on HOP-62 NSCLC; 0.122 µM and 0.332 µM in the assay with MCF7 breast; 7.5 µM and > 10 µM with OVCAR-4 ovarian. Also, the GI50 in the assay on SF-539 CNS is 11.9 µM and > 10 µM; with TK-10 renal, 12 µM and > 10 µM; in the assay with UACC-257 melanoma, 5.68 µM and > 10 µM. Also, the TGI in the assay on CCRF-CEM leukemia is over 100 µM; with EKVX NSCLC it was over 100 µM; in the assay on HCC-2998 colon it was 27.3 µM and > 10 µM; in the assay on HL-60(TB) leukemia, 25.8 µM and > 10 µM; in the assay with HOP-62 NSCLC, 50.6 µM and > 10 µM; with MCF7 breast it was over 43.3 µM. Also, the TGI with OVCAR-4 ovarian is over 95 µM; with SF-539 CNS, 28.8 µM and > 10 µM; in the assay on TK-10 renal, 56.3 µM and > 10 µM; with UACC-257 melanoma, 48.2 µM and > 10 µM.
In the case of `COc1ccccc1N1CCN(CCc2c[nH]c3cc4c(cc23)OCO4)CC1`, the GI50 in the assay on CCRF-CEM leukemia was 29.8 µM; in the assay on EKVX NSCLC, 16.8 µM; in the assay on HCC-2998 colon, 16.5 µM; in the assay on HL-60(TB) leukemia, 10.4 µM; in the assay with HOP-62 NSCLC, 28.6 µM; in the assay on MCF7 breast, 33.3 µM. Further, the GI50 with OVCAR-4 ovarian was 37.7 µM; with SF-539 CNS, 20.2 µM; with TK-10 renal, 27.1 µM; in the assay with UACC-257 melanoma, 26.5 µM. The TGI was over 100 µM in the assay on CCRF-CEM leukemia; 64.6 µM in the assay on EKVX NSCLC; 32.6 µM in the assay with HCC-2998 colon; over 100 µM in the assay with HL-60(TB) leukemia; over 100 µM with HOP-62 NSCLC; over 100 µM with MCF7 breast. For the same molecule, the TGI in the assay with OVCAR-4 ovarian was over 100 µM; in the assay with SF-539 CNS it was over 100 µM; in the assay on TK-10 renal, over 100 µM; in the assay with UACC-257 melanoma it was 88.9 µM.
In the case of `CCN1Cc2c(ccc(F)c2C#N)O[C@@H](C)CNC(=O)c2c(N)nn3ccc1nc23`, the GI50 in the assay with CCRF-CEM leukemia is 3.74 µM; in the assay with EKVX NSCLC, 5.03 µM; in the assay with HCC-2998 colon, 5.57 µM; in the assay with HL-60(TB) leukemia, 4.37 µM; with HOP-62 NSCLC it was 2.76 µM; in the assay with MCF7 breast, 3.23 µM. The GI50 in the assay with OVCAR-4 ovarian was 8.44 µM; in the assay on SF-539 CNS, 3.46 µM; in the assay with TK-10 renal it was 1.29 µM; in the assay with UACC-257 melanoma, 2.63 µM. Further, the TGI with CCRF-CEM leukemia is over 100 µM; in the assay on EKVX NSCLC it was 31.4 µM; in the assay on HCC-2998 colon, 20.7 µM; in the assay with HL-60(TB) leukemia, 40 µM; in the assay with HOP-62 NSCLC, 20.1 µM; in the assay with MCF7 breast it was 31.1 µM. In addition, the TGI is over 100 µM in the assay on OVCAR-4 ovarian, 15.8 µM in the assay with SF-539 CNS, 11.7 µM in the assay on TK-10 renal and 16.7 µM in the assay on UACC-257 melanoma.
As to `O=C(Nc1ccc2[nH]c(=S)sc2c1)Nc1ccccc1F`, the GI50 in the assay on CCRF-CEM leukemia was 26.7 µM; with EKVX NSCLC, 22.3 µM; in the assay on HCC-2998 colon, 30.6 µM; with HL-60(TB) leukemia, 23.9 µM; in the assay with HOP-62 NSCLC, 37.2 µM; with MCF7 breast, 36.7 µM. For the same molecule, the GI50 with OVCAR-4 ovarian was 21 µM; in the assay on SF-539 CNS, 29.6 µM; in the assay on TK-10 renal, 51.5 µM; in the assay with UACC-257 melanoma it was 73.5 µM. The TGI in the assay on CCRF-CEM leukemia was over 100 µM; in the assay on EKVX NSCLC, over 100 µM; with HCC-2998 colon it was over 100 µM; with HL-60(TB) leukemia, 93.5 µM; in the assay with HOP-62 NSCLC, over 100 µM; in the assay on MCF7 breast it was over 100 µM. Besides, the TGI in the assay on OVCAR-4 ovarian, with SF-539 CNS, with TK-10 renal and in the assay on UACC-257 melanoma was over 100 µM throughout.

(Values after PubChem BioAssay (NCI).)
